{
  "source": "patent US7303762B2",
  "about": "“Absorption enhancers” (Axcess Limited, priority 2000, dated 2007)",
  "key": {"[1]": {"assay": "Plasma glucose after intra-jejunal administration of insulin capsules to conscious pigs", "assay_type": "in vivo", "conditions": "one capsule", "protocol": "Formulations prepared as described in examples 1 and 2 were administered (one capsule per animal) directly to the intestine of conscious pigs (40 to 60 kg) via an in-dwelling stoma implanted surgically in the jejunum. Before and after administration, at the intervals shown, blood samples were taken for analysis of blood glucose levels. As a control, capsules containing 200 iu of unformulated insulin were also administered intra-jejunally."}, "Caco-2 cells": {"tested_on": "Caco-2 cells", "assay": "Trans-epithelial electrical resistance (TEER) across Caco-2 mono-layer", "assay_type": "cell-based, human", "conditions": "four replicates", "protocol": "Caco-2 cells (a cell-line derived from human colon adenocarcinoma) were grown as a confluent mono-layer on the surface of a porous membrane (pore size 0.4 μm, surface area 0.33 cm^2) separating two aqueous compartments, the upper compartment filled with 200 μl of culture medium, and the lower compartment containing 600 μl. Electrical resistance across the mono-layer was measured using an epithelial voltohmeter connected to electrodes inserted into the medium on either side of the mono-layer in the upper and lower compartments. This trans-epithelial electrical resistance (TEER) was measured immediately before, and 15 minutes after the addition of aromatic alcohols to the upper compartment (see Table 6 below). Use of the compounds diluted two to four-fold below those concentrations shown eliminates the falls in electrical resistance observed. Fall in TEER is considered indicative of the appearance of aqueous channels between cells, and is evidence that the mechanism of action of the aromatic alcohols tested, in exerting their absorption enhancing activity, is via opening or loosening of tight junctions between intestinal cells."}},
  "data": [
    {"molecule": "Control (unformulated insulin): capsules containing 200 iu of unformulated insulin administered intra-jejunally", "values": [
      {"measurement": "Changes in plasma glucose", "setting": "[1]; 15 minutes, + s.d.", "result": "0.01 + 0.24 mmol/l"},
      {"measurement": "Changes in plasma glucose", "setting": "[1]; 30 minutes, + s.d.", "result": "−0.05 + 0.21 mmol/l"},
      {"measurement": "Changes in plasma glucose", "setting": "[1]; 45 minutes, + s.d.", "result": "−0.06 + 0.17 mmol/l"},
      {"measurement": "Changes in plasma glucose", "setting": "[1]; 60 minutes, + s.d.", "result": "−0.32 + 0.23 mmol/l"},
      {"measurement": "Changes in plasma glucose", "setting": "[1]; 90 minutes, + s.d.", "result": "−0.17 + 0.21 mmol/l"},
      {"measurement": "Changes in plasma glucose", "setting": "[1]; 120 minutes, + s.d.", "result": "−0.22 + 0.32 mmol/l"},
      {"measurement": "Changes in plasma glucose", "setting": "[1]; 180 minutes, + s.d.", "result": "−0.13 + 0.21 mmol/l"},
      {"measurement": "Changes in plasma glucose", "setting": "[1]; 240 minutes, + s.d.", "result": "−0.34 + 0.32 mmol/l"},
      {"measurement": "Changes in plasma glucose", "setting": "[1]; time −10 minutes", "result": 0.00, "unit": "mmol/L"}
    ]},
    {"molecule": "OCc1ccccc1", "note": "[Benzyl alcohol]", "values": [
      {"measurement": "TEER 15 minutes after", "setting": "Caco-2 cells; 15 minutes after addition to upper compartment, concentration 40 μl/ml", "result": "−1.6 ± 3.2", "unit": "ohm · cm^2"},
      {"measurement": "TEER Before addition", "setting": "Caco-2 cells; immediately before addition of agent", "result": "447.2 ± 76.9", "unit": "ohm · cm^2"}
    ]}
  ]
}
